# Measurements from US10688093B2, “Methods, compositions, and uses of novel Fyn kinase inhibitors” (priority 2015, dated 2020).
# Target: full-length recombinant human FYN A (Homo sapiens (Human), UniProt P06241)
# Test: ADP-Glo Kinase Assay of FYN kinase inhibition
# Assay type: biochemical
# Conditions: primary screen, initial compounds
# Summary of the method: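 ADP-Glo read-out of peptide phosphorylation after 90 min RT with 12.5 pmol ATP and 100 pg 12-mer substrate. Enzyme was N-GST full-length human FYN A from insect cells, 3 pg, pre-incubated 30 min with compound, 10 points from 10 μM top, 3-fold steps; IC50 from curve.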
# Sequence of full-length recombinant human FYN A (P06241 whole entry): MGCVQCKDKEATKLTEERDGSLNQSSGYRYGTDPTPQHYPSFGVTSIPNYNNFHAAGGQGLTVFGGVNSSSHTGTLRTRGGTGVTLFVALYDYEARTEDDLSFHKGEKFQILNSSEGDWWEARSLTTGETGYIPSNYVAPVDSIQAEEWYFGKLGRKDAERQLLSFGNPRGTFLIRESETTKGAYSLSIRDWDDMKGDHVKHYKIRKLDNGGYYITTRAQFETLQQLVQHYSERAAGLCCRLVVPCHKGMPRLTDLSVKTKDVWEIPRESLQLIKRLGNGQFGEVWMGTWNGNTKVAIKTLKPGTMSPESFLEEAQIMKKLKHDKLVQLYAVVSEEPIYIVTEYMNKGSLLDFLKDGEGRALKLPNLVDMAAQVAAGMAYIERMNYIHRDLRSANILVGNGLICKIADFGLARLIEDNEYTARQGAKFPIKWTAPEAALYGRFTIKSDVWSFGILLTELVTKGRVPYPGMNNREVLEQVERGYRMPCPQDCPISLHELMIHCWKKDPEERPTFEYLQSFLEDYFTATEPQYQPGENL
row,SMILES,IC50 [nM]
1,"OCc1ccc(-c2cnc3ccc(-c4cccc(O)c4)nn23)cc1 [Compound 435, 3-[3-[4-(hydroxymethyl)phenyl]imidazo [1,2-b]pyridazin-6-yl]phenol]",1140
2,"COc1ccc(-c2ccc3ncc(-c4cccc(CO)c4)n3n2)cc1OC [Compound 436, [3-[6-(3,4-dimethoxyphenyl)imidazo[1,2-b]pyridazin-3-yl]phenyl] methanol]",749
3,"CC(=O)c1cccc(-c2ccc3ncc(-c4cccc(C(C)=O)c4)n3n2)c1 [Compound 437, 1-[3-[3-(3-acetylphenyl)imidazo[1,2-b]pyridazin-6-yl]phenyl] ethanone]",582
4,"CNc1ccc2ncc(-c3ccsc3)n2n1 [Compound 437_0074, N-methyl-3-(3-thienyl)imidazo [1,2-b]pyridazin-6-amine]",4230
5,"CNc1ccc2ncc(-c3ccc(OC)c(OC)c3)n2n1 [Compound 437_0079, 3-(3,4-dimethoxyphenyl)-N-methyl-imidazo[1,2-b]pyridazin-6-amine]",1240
6,"CNc1ccc2ncc(-c3cccc(NC(C)=O)c3)n2n1 [Compound 437_0081, N-[3-[6-(methylamino)imidazo[1,2-b]pyridazin-3-yl]phenyl] acetamide]",1750
7,"CNc1ccc2ncc(-c3ccc(OC)cc3)n2n1 [Compound 437_0280, 3-(4-methoxyphenyl)-N-methyl-imidazo[1,2-b]pyridazin-6-amine]",4160
8,"CNc1ccc2ncc(-c3cccc(O)c3)n2n1 [Compound 437_0284, 3-[6-(methyl-amino)imidazo[1,2-b]pyridazin-3-yl]phenol]",2180
9,"CNc1ccc2ncc(-c3ccc(OC)nc3)n2n1 [Compound 437_0311, 3-(6-methoxy-3-pyridyl)-N-methyl-imidazo[1,2-b]pyridazin-6-amine]",4460
10,"CNc1ccc2ncc(-c3ccc(F)cc3)n2n1 [Compound 437_0339, 3-(4-fluoro-phenyl)-N-methyl-imidazo[1,2-b]pyridazin-6-amine]",3260
11,"CNc1ccc2ncc(-c3ccccc3O)n2n1 [Compound 437_0340, 2-[6-(methylamino)imidazo[1,2-b]pyridazin-3-yl]phenol]",1130
12,"CNc1ccc2ncc(-c3cccc(C(=O)N(C)C)c3)n2n1 [Compound 437_0349, N,N-dimethyl-3-[6-(methylamino)imidazo[1,2-b]pyridazin-3-yl]benzamide]",2940
13,"CNc1ccc2ncc(-c3cnn(C)c3)n2n1 [Compound 437_7468, N-methyl-3-(1-methylpyrazol-4-yl)imidazo[1,2-b]pyridazin-6-amine]",5630
14,"CN(C)CCNC(=O)c1cccc(-c2ccc3ncc(-c4cccs4)n3n2)c1 [Compound 438, N-(2-dimethyl-aminoethyl)-3-[3-(2-thienyl)imidazo[1,2-b]pyridazin-6-yl]benzamide]",1160
15,"c1ccc(-c2ccc3ncc(-c4ccc5c(c4)OCO5)n3n2)cc1 [Compound 439, 3-(1,3-benzodioxol-5-yl)-6-phenyl-imidazo[1,2-b]pyridazine]",3090
16,"Oc1cccc(-c2ccc3ncc(-c4cccnc4)n3n2)c1 [Compound 440, 3-[3-(3-pyridyl)imidazo [1,2-b]pyridazin-6-yl]phenol]",1810
17,"COc1ccc(-c2cnc3ccc(-c4cccs4)nn23)cc1OC [Compound 441, 3-(3,4-dimethoxy-phenyl)-6-(2-thienyl)imidazo [1,2-b]pyridazine]",211
18,"Oc1cccc(-c2ccc3ncc(-c4cccc(O)c4)n3n2)c1 [Compound 442, 3-[3-(3-hydroxyphenyl)imidazo[1,2-b]pyridazin-6-yl]phenol]",987
19,"CC(=O)Nc1cccc(-c2ccc3ncc(-c4ccc(CO)cc4)n3n2)c1 [Compound 443, N-[3-[3-[4-(hydroxymethyl)phenyl]imidazo [1,2-b]pyridazin-6-yl]phenyl] acetamide]",2240
20,"CC(=O)c1cccc(-c2cnc3ccc(-c4ccc(F)cc4)nn23)c1 [Compound 444, 1-[3-[6-(4-fluorophenyl)imidazo[1,2-b]pyridazin-3-yl]phenyl] ethanone]",4810
21,"CNC(=O)c1cccc(-c2ccc3ncc(-c4cccc(NC(C)=O)c4)n3n2)c1 [Compound 445, 3-[3-(3-acetamido-phenyl)imidazo [1,2-b]pyridazin-6-yl]-N-methyl-benzamide]",1330
22,"CNc1cncc(-c2ccc3[nH]ccc3c2)n1 [Compound 445_0204, 6-(1H-indol-5-yl)-N-methyl-pyrazin-2-amine]",14900
23,"OCc1cccc(-c2ccc3ncc(-c4ccccc4)n3n2)c1 [Compound 446, [3-(3-phenylimidazo [1,2-b]pyridazin-6-yl)phenyl] methanol]",1930

row,SMILES,IC50 [nM]
1,"Cn1cc(-c2ccc3ncc(-c4ccncc4)n3n2)cn1 [Compound 447, 6-(1-methylpyrazol-4-yl)-3-(4-pyridyl)imidazo [1,2-b]pyridazine]",30000
2,"CN(C)CCNC(=O)c1cccc(-c2ccc3ncc(-c4cccc(OC(F)(F)F)c4)n3n2)c1 [Compound 448, N-(2-dimethylamino-ethyl)-3-[3-[3-(trifluoromethoxy)phenyl]imidazo [1,2-b]pyridazin-6-yl]benzamide]",3930
3,"OCc1ccc(-c2ccc3ncc(-c4ccc(CO)cc4)n3n2)cc1 [Compound 449, [4-[3-[4-(hydroxymethyl)phenyl]imidazo [1,2-b]pyridazin-6-yl]phenyl] methanol]",1040
4,"COc1cc(-c2cnc3ccc(-c4ccc5c(c4)OCO5)nn23)ccc1O [Compound 450, 4-[6-(1,3-benzodioxol-5-yl)imidazo[1,2-b]pyridazin-3-yl]-2-methoxy-phenol]",200
5,"CC(=O)c1cccc(-c2cnc3ccc(-c4cccs4)nn23)c1 [Compound 451, 1-[3-[6-(2-thienyl)imidazo [1,2-b]pyridazin-3-yl]phenyl] ethanone]",416
6,"COc1cncc(-c2ccc3ncc(-c4cccs4)n3n2)c1 [Compound 452, 6-(5-methoxy-3-pyridyl)-3-(2-thienyl)imidazo [1,2-b]pyridazine]",2860
7,"c1csc(-c2ccc3ncc(-c4cccs4)n3n2)c1 [Compound 453, 3,6-bis(2-thienyl)imidazo [1,2-b]pyridazine]",4890
8,"CN(C)CCNC(=O)c1cccc(-c2cnc3ccc(-c4cnn(C)c4)nn23)c1 [Compound 454, N-(2-dimethyl-aminoethyl)-3-[6-(1-methyl-pyrazol-4-yl)imidazo[1,2-b]pyridazin-3-yl]benzamide]",1760
9,"CN(C)CCNC(=O)c1cccc(-c2cnc3ccc(-c4ccc5c(c4)OCO5)nn23)c1 [Compound 455, 3-[6-(1,3-benzodioxol-5-yl)imidazo[1,2-b]pyridazin-3-yl]-N-(2-dimethylamino-ethyl)benzamide]",2020
10,"CN(C)CCNC(=O)c1cccc(-c2cnc3ccc(-c4cccc(C(N)=O)c4)nn23)c1 [Compound 456, 3-[3-[3-(2-dimethylamino-ethylcarbamoyl)phenyl]imidazo [1,2-b]pyridazin-6-yl]benzamide]",4150
11,"O=C(NCCO)c1cccc(-c2ccc3ncc(-c4cccc(O)c4)n3n2)c1 [Compound 457, N-(2-hydroxyethyl)-3-[3-(3-hydroxyphenyl)imidazo[1,2-b]pyridazin-6-yl]benzamide]",352
12,"COc1cc(-c2cnc3ccc(-c4cc(OC)c(OC)c(OC)c4)nn23)ccc1O [Compound 458, 2-methoxy-4-[6-(3,4,5-trimethoxyphenyl)imidazo[1,2-b]pyridazin-3-yl]phenol]",1810
13,"OCc1cccc(-c2ccc3ncc(-c4ccoc4)n3n2)c1 [Compound 459, [3-[3-(3-furyl)imidazo[1,2-b]pyridazin-6-yl]phenyl] methanol]",7330
14,"NC(=O)c1ccc(-c2cnc3ccc(Cc4ccccc4)nn23)cc1 [Compound 460, 4-(6-benzylimidazo [1,2-b]pyridazin-3-yl)benzamide]",711
15,"CC(=O)Nc1ccc(-c2ccc3ncc(-c4cccc(C(=O)NCCN(C)C)c4)n3n2)cc1 [Compound 461, 3-[6-(4-acetamidophenyl)imidazo[1,2-b]pyridazin-3-yl]-N-(2-dimethylamino-ethyl)benzamide]",983
16,"COc1cc(-c2cnc3ccc(-c4cccc(OC(F)(F)F)c4)nn23)ccc1O [Compound 462, 2-methoxy-4-[6-[3-(trifluoro-methoxy)phenyl]imidazo[1,2-b]pyridazin-3-yl]phenol]",835
17,"CN(C)CCNC(=O)c1cccc(-c2cnc3ccc(-c4cccc(CO)c4)nn23)c1 [Compound 463, N-(2-dimethylamino-ethyl)-3-[6-[3-(hydroxymethyl)phenyl]imidazo [1,2-b]pyridazin-3-yl]benzamide]",816
18,"NC(=O)c1ccc(-c2cnc3ccc(Cc4ccc(F)c(F)c4)nn23)cc1 [Compound 464, 4-[6-[(3,4-difluorophenyl)methyl]imidazo [1,2-b]pyridazin-3-yl]benzamide]",3070
19,"CC(=O)Nc1cccc(-c2ccc3ncc(-c4cccc(C(=O)NCCN(C)C)c4)n3n2)c1 [Compound 465, 3-[6-(3-acetamidophenyl)imidazo[1,2-b]pyridazin-3-yl]-N-(2-dimethylamino-ethyl)benzamide]",3170
20,"COc1cc(-c2cnc3ccc(-c4cccc(C(F)(F)F)c4)nn23)ccc1O [Compound 466, 2-methoxy-4-[6-[3-(trifluoro-methyl)phenyl]imidazo[1,2-b]pyridazin-3-yl]phenol]",1080
21,"COc1cncc(-c2cnc3ccc(Cc4ccccc4)nn23)c1 [Compound 467, 6-benzyl-3-(5-methoxy-3-pyridyl)imidazo [1,2-b]pyridazine]",2670
22,"Cc1cccc(Cc2ccc3ncc(-c4ccc(C(N)=O)cc4)n3n2)c1 [Compound 468, 4-[6-(m-tolylmethyl)imidazo[1,2-b]pyridazin-3-yl]benzamide]",3100
23,"COc1ccccc1-c1ccc2ncc(-c3cccc(C(=O)NCCN(C)C)c3)n2n1 [Compound 469, N-(2-dimethylamino-ethyl)-3-[6-(2-methoxyphenyl)imidazo[1,2-b]pyridazin-3-yl]benzamide]",2140
